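Grown in 96-well plates, cells were treated for 48 hours with each compound at five concentrations. Insufficient inhibition: endpoint recorded as highest concentration tested. TGI is the concentration that stops growth completely.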
Columns and labels:
Assay in all cases: inhibition of tumour cell growth, NCI panel, 48 h
786-0 renal = test system: 786-0 renal
A498 renal = test system: A498 renal
A549 NSCLC = test system: A549 NSCLC
ACHN renal = test system: ACHN renal
CAKI-1 renal = test system: CAKI-1 renal
CCRF-CEM leukemia = test system: CCRF-CEM leukemia
COLO 205 colon = test system: COLO 205 colon
DMS 273 small cell lung = test system: DMS 273 small cell lung
EKVX NSCLC = test system: EKVX NSCLC
HCC-2998 colon = test system: HCC-2998 colon
HCT-116 colon = test system: HCT-116 colon
HCT-15 colon = test system: HCT-15 colon
HL-60(TB) leukemia = test system: HL-60(TB) leukemia
HOP-18 NSCLC = test system: HOP-18 NSCLC
HOP-62 NSCLC = test system: HOP-62 NSCLC
HOP-92 NSCLC = test system: HOP-92 NSCLC
HT29 colon = test system: HT29 colon
IGROV1 ovarian = test system: IGROV1 ovarian
K-562 leukemia = test system: K-562 leukemia
KM12 colon = test system: KM12 colon
KM20L2 colon = test system: KM20L2 colon
LOX IMVI melanoma = test system: LOX IMVI melanoma
LXFL 529 NSCLC = test system: LXFL 529 NSCLC
M19-MEL melanoma = test system: M19-MEL melanoma
MALME-3M melanoma = test system: MALME-3M melanoma
MOLT-4 leukemia = test system: MOLT-4 leukemia
NCI-H226 lung = test system: NCI-H226 lung
NCI-H23 lung = test system: NCI-H23 lung
NCI-H460 lung = test system: NCI-H460 lung
NCI-H522 lung = test system: NCI-H522 lung
OVCAR-3 ovarian = test system: OVCAR-3 ovarian
OVCAR-4 ovarian = test system: OVCAR-4 ovarian
OVCAR-5 ovarian = test system: OVCAR-5 ovarian
OVCAR-8 ovarian = test system: OVCAR-8 ovarian
RXF 393 renal = test system: RXF 393 renal
SF-268 CNS = test system: SF-268 CNS
SF-295 CNS = test system: SF-295 CNS
SK-MEL-2 melanoma = test system: SK-MEL-2 melanoma
SK-MEL-28 melanoma = test system: SK-MEL-28 melanoma
SK-OV-3 ovarian = test system: SK-OV-3 ovarian
SNB-19 CNS = test system: SNB-19 CNS
SNB-78 CNS = test system: SNB-78 CNS
SR leukemia = test system: SR leukemia
SW-620 colon = test system: SW-620 colon
TK-10 renal = test system: TK-10 renal
U251 CNS = test system: U251 CNS
UACC-257 melanoma = test system: UACC-257 melanoma
BT-549 breast = test system: BT-549 breast
DU-145 prostate = test system: DU-145 prostate
HS 578T breast = test system: HS 578T breast
M14 melanoma = test system: M14 melanoma
MCF7 breast = test system: MCF7 breast
MDA-MB-231 breast = test system: MDA-MB-231 breast
MDA-MB-435 = test system: MDA-MB-435
MDA-N = test system: MDA-N
NCI/ADR-RES ovarian = test system: NCI/ADR-RES ovarian
PC-3 prostate = test system: PC-3 prostate
RPMI-8226 leukemia = test system: RPMI-8226 leukemia
SF-539 CNS = test system: SF-539 CNS
SK-MEL-5 melanoma = test system: SK-MEL-5 melanoma
SN12C renal = test system: SN12C renal
SNB-75 CNS = test system: SNB-75 CNS
T-47D breast = test system: T-47D breast
UACC-62 melanoma = test system: UACC-62 melanoma
UO-31 renal = test system: UO-31 renal

With `CC1(C)C(=O)CCC(=O)C(C)(C)C2=CC=C(O2)C(C)(C)C(=O)CCC(=O)C(C)(C)C2=CC=C1O2` the TGI (786-0 renal) was over 100 µM, the TGI (A498 renal) was over 100 µM and the TGI (A549 NSCLC) was over 100 µM. The TGI (ACHN renal) was over 100 µM, the TGI (CAKI-1 renal) was over 100 µM and the TGI (CCRF-CEM leukemia) was over 100 µM. It also gave a TGI (COLO 205 colon) of over 100 µM, a TGI (DMS 273 small cell lung) of over 100 µM and a TGI (EKVX NSCLC) of over 100 µM. The TGI (HCC-2998 colon) was over 100 µM, the TGI (HCT-116 colon) was over 100 µM and the TGI (HCT-15 colon) was over 100 µM. For the same molecule, the TGI (HL-60(TB) leukemia) was over 100 µM, the TGI (HOP-18 NSCLC) was over 100 µM and the TGI (HOP-62 NSCLC) was over 100 µM. It also gave a TGI (HOP-92 NSCLC) of over 100 µM, a TGI (HT29 colon) of over 100 µM and a TGI (IGROV1 ovarian) of over 100 µM. It also gave a TGI (K-562 leukemia) of over 100 µM, a TGI (KM12 colon) of over 100 µM and a TGI (KM20L2 colon) of over 100 µM. It also gave a TGI (LOX IMVI melanoma) of over 100 µM, a TGI (LXFL 529 NSCLC) of over 100 µM and a TGI (M19-MEL melanoma) of over 100 µM. For the same molecule, the TGI (MALME-3M melanoma) was over 100 µM, the TGI (MOLT-4 leukemia) was over 100 µM and the TGI (NCI-H226 lung) was over 100 µM. It also gave a TGI (NCI-H23 lung) of over 100 µM, a TGI (NCI-H460 lung) of over 100 µM and a TGI (NCI-H522 lung) of over 100 µM. It also gave a TGI (OVCAR-3 ovarian) of over 100 µM, a TGI (OVCAR-4 ovarian) of over 100 µM and a TGI (OVCAR-5 ovarian) of over 100 µM. It also gave a TGI (OVCAR-8 ovarian) of over 100 µM, a TGI (RXF 393 renal) of over 100 µM and a TGI (SF-268 CNS) of over 100 µM. For the same molecule, the TGI (SF-295 CNS) was over 100 µM, the TGI (SK-MEL-2 melanoma) was over 100 µM and the TGI (SK-MEL-28 melanoma) was over 100 µM. The TGI (SK-OV-3 ovarian) was over 100 µM, the TGI (SNB-19 CNS) was over 100 µM and the TGI (SNB-78 CNS) was over 100 µM. For the same molecule, the TGI (SR leukemia) was over 100 µM, the TGI (SW-620 colon) was over 100 µM and the TGI (TK-10 renal) was over 100 µM. For the same molecule, the TGI (U251 CNS) was over 100 µM and the TGI (UACC-257 melanoma) was over 100 µM.
`C[As](C)SCC(NC(=O)CCC(N)C(=O)O)C(=O)NCC(=O)O.Cl.c1ccncc1` (stereo not drawn) showed a TGI (786-0 renal) of 1.3 µM, a TGI (A498 renal) of 3.44 µM and a TGI (A549 NSCLC) of 5.64 µM. The TGI (ACHN renal) was 1.1 µM, the TGI (BT-549 breast) was 1.57 µM and the TGI (CAKI-1 renal) was 0.652 µM. It also gave a TGI (CCRF-CEM leukemia) of 6.31 µM, a TGI (COLO 205 colon) of over 100 µM and a TGI (DU-145 prostate) of 0.556 µM. The TGI (EKVX NSCLC) was 3.08 µM, the TGI (HCC-2998 colon) was 0.813 µM and the TGI (HCT-116 colon) was 1.53 µM. It also gave a TGI (HCT-15 colon) of 0.977 µM, a TGI (HL-60(TB) leukemia) of 0.878 µM and a TGI (HOP-62 NSCLC) of 5.64 µM. The TGI (HOP-92 NSCLC) was 0.763 µM, the TGI (HS 578T breast) was 4.6 µM and the TGI (IGROV1 ovarian) was 6.18 µM. The TGI (KM12 colon) was 3.81 µM, the TGI (LOX IMVI melanoma) was 1.02 µM and the TGI (M14 melanoma) was 1.12 µM. It also gave a TGI (MALME-3M melanoma) of 0.119 µM, a TGI (MCF7 breast) of 1.14 µM and a TGI (MDA-MB-231 breast) of 0.912 µM. It also gave a TGI (MDA-MB-435) of 1.07 µM, a TGI (MDA-N) of 1.51 µM and a TGI (NCI-H226 lung) of 1.19 µM. It also gave a TGI (NCI-H23 lung) of 2.7 µM, a TGI (NCI-H460 lung) of 8.9 µM and a TGI (NCI-H522 lung) of 0.267 µM. For the same molecule, the TGI (NCI/ADR-RES ovarian) was 9.71 µM, the TGI (OVCAR-3 ovarian) was 0.412 µM and the TGI (OVCAR-4 ovarian) was 2.64 µM. The TGI (OVCAR-5 ovarian) was 6.89 µM, the TGI (OVCAR-8 ovarian) was 0.679 µM and the TGI (PC-3 prostate) was 4 µM. The TGI (RPMI-8226 leukemia) was 1.56 µM, the TGI (RXF 393 renal) was 0.398 µM and the TGI (SF-268 CNS) was 3.59 µM. It also gave a TGI (SF-295 CNS) of 12.7 µM, a TGI (SF-539 CNS) of 2.09 µM and a TGI (SK-MEL-2 melanoma) of 1.67 µM. The TGI (SK-MEL-28 melanoma) was 2.01 µM, the TGI (SK-MEL-5 melanoma) was 0.878 µM and the TGI (SK-OV-3 ovarian) was over 47.8 µM. The TGI (SN12C renal) was 2.14 µM, the TGI (SNB-19 CNS) was 25.5 µM and the TGI (SNB-75 CNS) was 14.8 µM. The TGI (SR leukemia) was 0.076 µM, the TGI (SW-620 colon) was 6.59 µM and the TGI (T-47D breast) was 1.19 µM. For the same molecule, the TGI (TK-10 renal) was 0.595 µM, the TGI (U251 CNS) was 5.58 µM and the TGI (UACC-257 melanoma) was 2.46 µM. The TGI (UACC-62 melanoma) was 1.13 µM and the TGI (UO-31 renal) was 1.31 µM.

From PubChem BioAssay (NCI)
